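Growth conditions: 96-well plates. Treatment: test compound, 48 hours, 5 concentrations. Analysis: linear interpolation between bracketing concentrations; unreached endpoints set to highest concentration. GI50: concentration for 50% inhibition of growth.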 Active and inactive are the calls of the source. No stated cut-off is given here; in the data, active = GI50 up to about 1.1 µM and inactive = higher.

Among the test systems are 786-0; A549; CCRF-CEM; HCT-15; HL-60; HOP-92; IGROV-1; KM12; MCF7; MDA-MB-435; NCI-H23; OVCAR-5; RXF 393; SF-295; SF-539; SNB-75; SR; T47D; UACC-62; K562.
What all share (assay): inhibition of tumour cell growth, NCI panel, 48 h

Consider `COc1c2c(cc3c1OCO3)C13C=CC(OC)CC1N(CC3)C2.[O-][Cl+3]([O-])([O-])O` (stereo not drawn), for which the GI50 is > 100 µM (inactive) in the test with 786-0; > 100 µM (inactive) in the test with A549; > 100 µM (inactive) with CCRF-CEM; 28.4 µM with HCT-15; 39.4 µM (inactive) in the test on HL-60; > 100 µM (inactive) in the test with HOP-92. The GI50 with IGROV-1 is > 100 µM (inactive); in the test with KM12 it was 51.1 µM (inactive); in the test on MCF7 it was > 100 µM (inactive); in the test on MDA-MB-435, 34.3 µM (inactive); with NCI-H23, > 100 µM (inactive); with OVCAR-5 it was > 100 µM (inactive). For the same molecule, the GI50 in the test on RXF 393 was > 100 µM (inactive); with SF-295, > 100 µM (inactive); in the test with SF-539 it was > 100 µM (inactive); with SNB-75, > 100 µM (inactive); with SR, 4.9 µM (inactive); in the test with T47D, > 100 µM (inactive). The GI50 with UACC-62 is > 100 µM (inactive).

With `O=S(=O)(O)SCCNCCCCCC1CCCCC1`, the GI50 in the test with 786-0 was 13.4 µM (inactive); in the test on A549, 7.8 µM (inactive); in the test on CCRF-CEM, 6.24 µM (inactive); in the test on HCT-15, 8.77 µM; in the test on HL-60, 7.29 µM (inactive); with HOP-92 it was 20.8 µM (inactive). Moreover, the GI50 is 8.65 µM (inactive) in the test on IGROV-1; 0.863 µM (active) in the test on K562; 2.79 µM (inactive) in the test with KM12; 2.75 µM (inactive) in the test with MCF7; 3.44 µM (inactive) in the test on MDA-MB-435; 10.4 µM (inactive) with NCI-H23. Moreover, the GI50 in the test on OVCAR-5 was 9.64 µM (inactive); with RXF 393 it was 17.1 µM (inactive); in the test with SF-295, 5.86 µM (inactive); in the test on SF-539, 7.11 µM (inactive); in the test with SNB-75, 3.56 µM (inactive); in the test on SR, 8.99 µM (inactive). Further, the GI50 in the test with T47D is 13.6 µM (inactive); in the test on UACC-62, 1.88 µM (inactive).

For `O=C(/N=N/c1ccc(Br)cc1)NNc1ccc(Br)cc1`, the GI50 in the test on CCRF-CEM is 0.132 µM (active); in the test on HCT-15, 19.4 µM; with HL-60, 14 µM (inactive); with HOP-92, 16.1 µM (inactive); in the test on IGROV-1, 22.1 µM (inactive); in the test with K562, 10.5 µM (inactive). Moreover, the GI50 with KM12 was 17.7 µM (inactive); in the test on MCF7, 18.2 µM (inactive); in the test on MDA-MB-435 it was 19.8 µM (inactive); with NCI-H23 it was 22.5 µM (inactive); in the test with OVCAR-5, 23.3 µM (inactive); in the test with RXF 393, 14.1 µM (inactive). Further, the GI50 with SF-295 is 28.1 µM (inactive); in the test with SNB-75, 29.4 µM (inactive); in the test on SR, 28.6 µM (inactive); in the test with T47D, 29.8 µM (inactive); with UACC-62 it was 14.1 µM (inactive).

With `CC(=O)Oc1ccc(-c2cc3ccccc3oc2=O)cc1`, the GI50 is > 100 µM (inactive) in the test on 786-0; > 100 µM (inactive) with A549; > 100 µM (inactive) with CCRF-CEM; greater than 100 µM with HCT-15; 24.8 µM (inactive) in the test with HL-60; 60.8 µM (inactive) in the test with HOP-92. In addition, the GI50 in the test with K562 is 83.4 µM (inactive); in the test on KM12 it was 18.7 µM (inactive); in the test with MCF7 it was > 100 µM (inactive); with MDA-MB-435, > 100 µM (inactive); in the test with NCI-H23, > 100 µM (inactive); in the test on OVCAR-5, > 100 µM (inactive). In addition, the GI50 in the test with SF-295 was 43.9 µM (inactive); in the test on SF-539, > 100 µM (inactive); in the test on SNB-75, 56.6 µM (inactive); in the test on SR, 56.9 µM (inactive); in the test with T47D, 52.8 µM (inactive).

As to `CCCCN(CCCC)C1=Nc2ccccc2-n2c(nnc2C(=O)OCC)C1`, the GI50 in the test with 786-0 was 73.1 µM (inactive); in the test on A549, 33.9 µM (inactive); in the test on CCRF-CEM it was 43.5 µM (inactive); in the test on HL-60, 15.6 µM (inactive); in the test with HOP-92 it was 33.6 µM (inactive); in the test on IGROV-1, 35.9 µM (inactive). Also, the GI50 in the test with K562 is 16.5 µM (inactive); in the test on KM12, 29.4 µM (inactive); with MCF7 it was 37.2 µM (inactive); in the test with MDA-MB-435 it was 38.5 µM (inactive); with NCI-H23 it was 74.6 µM (inactive); in the test with OVCAR-5, > 100 µM (inactive). The GI50 is 24.7 µM (inactive) in the test on RXF 393; 44.7 µM (inactive) in the test on SF-295; 44.4 µM (inactive) in the test on SF-539; 33.1 µM (inactive) in the test on SNB-75; 19.1 µM (inactive) in the test on SR; 10.4 µM (inactive) in the test with T47D. Further, the GI50 with UACC-62 is 47.2 µM (inactive).

As to `CN1CCC2(CC1)C(=O)N(N1CCCCCC1)C(=O)N2c1ccccc1`, the GI50 is > 100 µM (inactive) in the test on 786-0; > 100 µM (inactive) with A549; > 100 µM (inactive) in the test with CCRF-CEM; greater than 100 µM in the test with HCT-15; > 100 µM (inactive) in the test with HL-60; > 100 µM (inactive) with IGROV-1. The GI50 with K562, with KM12, with MCF7, with MDA-MB-435, with NCI-H23 and with OVCAR-5 was > 100 µM (inactive) each time. Besides, the GI50 is 31.3 µM (inactive) in the test on RXF 393; > 100 µM (inactive) in the test on SF-295; > 100 µM (inactive) in the test on SF-539; 31.9 µM (inactive) in the test with SNB-75; > 100 µM (inactive) in the test on SR; > 100 µM (inactive) with T47D. Further, the GI50 in the test on UACC-62 was 96.6 µM (inactive).

In the case of `C[C@@H]1CC[C@@]2(OC1)O[C@H]1[C@@H](O)[C@H]3[C@@H]4CC[C@H]5C[C@@H](O[C@@H]6O[C@H](CO)[C@H](O[C@@H]7O[C@H](CO)C(O)[C@H](O[C@@H]8OC[C@@H](O)[C@H](O)[C@H]8O)[C@H]7O[C@@H]7O[C@H](CO)[C@H](O)[C@H](O[C@@H]8O[C@H](CO)[C@@H](O)[C@H](O)[C@H]8O)[C@H]7O)[C@H](O)[C@H]6O)[C@H](O)C[C@]5(C)[C@H]4CC[C@]3(C)[C@H]1[C@@H]2C` (stereo partly drawn) [DIGITONIN], the GI50 is 1.61 µM (inactive) with 786-0; 2.17 µM (inactive) in the test with A549; 2.86 µM (inactive) in the test with CCRF-CEM; 4.03 µM with HCT-15; 2.9 µM (inactive) with HL-60; 4.74 µM (inactive) in the test on HOP-92. Moreover, the GI50 in the test with IGROV-1 is 2.83 µM (inactive); in the test on K562, 3.08 µM (inactive); in the test on KM12, 2.12 µM (inactive); with MCF7 it was 2.18 µM (inactive); in the test on MDA-MB-435, 11.2 µM (inactive); in the test on NCI-H23, 2.26 µM (inactive). Further, the GI50 in the test on OVCAR-5 is 2.07 µM (inactive); in the test with SF-295, 1.82 µM (inactive); in the test on SF-539, 2.98 µM (inactive); with SNB-75, 2.83 µM (inactive); in the test with SR, 2.37 µM (inactive); in the test on T47D, 3 µM (inactive). For the same molecule, the GI50 with UACC-62 is 4 µM (inactive).

As for `Cc1cc(C)c(/C=C(\C(=C/c2c(C)cc(C)cc2C)[N+](=O)[O-])[N+](=O)[O-])c(C)c1`, the GI50 is > 100 µM (inactive) in the test with A549; 41.6 µM (inactive) in the test with CCRF-CEM; > 100 µM (inactive) with HOP-92; > 100 µM (inactive) in the test on IGROV-1; > 100 µM (inactive) in the test with K562; > 100 µM (inactive) in the test with KM12. Further, the GI50 is 58.9 µM (inactive) with MCF7; > 100 µM (inactive) in the test on MDA-MB-435; > 100 µM (inactive) in the test with NCI-H23; > 100 µM (inactive) with OVCAR-5; 20.6 µM (inactive) in the test on RXF 393; > 100 µM (inactive) in the test on SF-295. For the same molecule, the GI50 is > 100 µM (inactive) in the test on SF-539; > 100 µM (inactive) in the test on SNB-75; 30.4 µM (inactive) in the test on SR; 78.9 µM (inactive) with T47D; > 100 µM (inactive) in the test with UACC-62.

Consider `COc1ccc(Oc2nc(C#CC(C)(C)O)nc(Oc3ccc(OC)cc3)n2)cc1`, for which the GI50 was 15.1 µM (inactive) in the test on A549; 1.43 µM (inactive) in the test on CCRF-CEM; 1.34 µM in the test on HCT-15; 1.07 µM (active) with HL-60; 5.45 µM (inactive) with IGROV-1; 1.67 µM (inactive) with K562. Further, the GI50 with KM12 is 14 µM (inactive); with MCF7, 1.51 µM (inactive); in the test on MDA-MB-435, 4.44 µM (inactive); in the test with NCI-H23, 7.74 µM (inactive); in the test on OVCAR-5 it was 4.72 µM (inactive); in the test with RXF 393, 1.39 µM (inactive). The GI50 with SF-295 was 16.7 µM (inactive); with SF-539 it was 7.08 µM (inactive); with SNB-75, 15.1 µM (inactive); in the test with SR, 0.625 µM (active); in the test on T47D it was 4.53 µM (inactive); in the test on UACC-62, 11.6 µM (inactive).

Turning to `Clc1ccc(-c2nn3c(COc4ccc(OCc5nnc6sc(-c7ccc(Cl)cc7)nn56)c(Cl)c4)nnc3s2)cc1`, the GI50 in the test with 786-0 was 13.7 µM (inactive); with A549 it was 24.4 µM (inactive); with HCT-15, 28 µM; with HL-60 it was 17.7 µM (inactive); in the test with HOP-92, 17.5 µM (inactive); in the test with IGROV-1 it was 18.9 µM (inactive). In addition, the GI50 in the test with K562 was 25.1 µM (inactive); with KM12, 29.4 µM (inactive); with MCF7 it was 35.7 µM (inactive); with MDA-MB-435, 33.7 µM (inactive); in the test on NCI-H23, 21.1 µM (inactive); in the test with OVCAR-5 it was 24.2 µM (inactive). Further, the GI50 in the test with RXF 393 was 15.8 µM (inactive); in the test with SF-295, 26.5 µM (inactive); in the test on SF-539 it was 24 µM (inactive); in the test with SNB-75, 12.7 µM (inactive); in the test on SR, 19.1 µM (inactive); in the test on T47D, 36.5 µM (inactive). For the same molecule, the GI50 in the test on UACC-62 is > 100 µM (inactive).

As to `CS(=O)(=O)OCC(CCl)(CCl)CCl`, the GI50 was > 100 µM (inactive) in the test on A549; > 100 µM (inactive) with CCRF-CEM; greater than 100 µM with HCT-15; > 100 µM (inactive) in the test on HOP-92; > 100 µM (inactive) with K562; > 100 µM (inactive) with KM12. The GI50 in the test on MCF7, with MDA-MB-435, in the test on NCI-H23, in the test with RXF 393, in the test on SF-295 and in the test on SNB-75 was > 100 µM (inactive) in each case. The GI50 in the test on SR and in the test on T47D was > 100 µM (inactive) each time.

Values taken from ChEMBL document CHEMBL1201862, “PubChem BioAssay data set” (2004).
